Laboratory results as given in patent US20120115951A1, “PROTECTIVE ACTION OF SEROFENDIC ACID ON CARDIAC MUSCLE” (Eisai R & D Managment Co., Ltd, priority 2005, published 2012).

Experiments:
[1] = tested on: neonatal rat cardiac myocytes; experiment: FACS analysis of ΔΨm in TMRE-loaded cells; format: cell-based; conditions: for protection against ΔΨm loss in the presence of mitoKATP channel blocker 5HD: 100 μM drug plus 500 μM 5HD
Protocol: (§1) Cardiac ventricular myocytes were prepared from 1-2-day-old Wister rats and cultured as previously described (Akao M, et al., Circ Res. 2001; 88:1267-75). In brief, the hearts were removed, and the ventricles were minced into small fragments, which were digested by trypsin dissociation. The dissociated cells were preplated for 1 hour to enrich the culture with myocytes. The non-adherent myocytes were then plated in plating medium consisting of Dulbecco's Modified Eagle Medium (DMEM) (Nacalai tesque; Kyoto, Japan) supplemented with 5% fetal calf serum, penicillin (100 U/ml), streptomycin ([…]), and 2 μg/ml vitamin B12. The final myocyte cultures contained >90% cardiac myocytes. The cells were maintained at 37° C. in the presence of 5% CO2 in a humidified incubator. Bromodeoxyuridine (0.1 mM) was incubated in the medium for the first 3 days after plating to inhibit fibroblast growth. Cultures were then placed in serum-free DMEM containing vitamin B12 and transferrin, 24 hours prior to the drug treatment.
(§2) To monitor ΔΨm, cells were loaded with 100 nM tetramethylrhodamine ethyl ester (TMRE) (Molecular Probes) at 37° C. for 20 minutes. To monitor [Ca^2+]m, the cells were loaded with 2 μM […] (Molecular Probes) at 37° C. for 30 minutes. We assayed intracellular ROS production using chloromethyl-2,7-dichlorodihydrofluorescein diacetate (DCF) (Molecular Probes). Cells were loaded with 4 μM DCF at 37° C. for 30 minutes, and formation of the oxidized derivative was monitored by the increase of green fluorescence.
For FACS analysis of ΔΨm, TMRE-loaded cells were harvested by trypsinization at the end of the experimental protocols, and analyzed using FACSAria (BD Biosciences; San Jose, Calif.) (20,000 cells/sample). The fluorescence intensity of TMRE was monitored at 582 nm (FL-2). The FACS data were analyzed using analysis software (WinMDI; http://facs/scripps.edu/software.html).
C=Control cells; H=Cells exposed to 100 μM H2O2 for 1 hour; SFA=Cells pretreated with 100 μM SFA followed by 100 μM H2O2 for 1 hour. In all histograms, the position of the major population of cells in the control group is indicated by a vertical dashed line. […] Cells were pretreated with various concentrations of SFA followed by 100 μM H2O2 for 1 hour. C=Control cells. SFA preserved ΔΨm in a concentration-dependent manner
FIG. 2c and FIG. 2d show the summarized data of the percentage of cells that maintain high (>200) TMRE fluorescence. The cells were pre-treated with various drugs shown in the figure and then treated with 100 μM H2O2 for 1 hour. DZ=100 μM diazoxide; 5HD=500 μM 5-hydroxydecanoate.

[2] = tested on: neonatal rat cardiac myocytes; experiment: MTS assay of cell viability after H2O2; format: cell-based; conditions: 100 μM SFA; H2O2 treatment 3 hours; P<0.01 vs H group
Protocol: as §1, with “Bromodeoxyuridine (0.1 mM) was incubated in the medium for the first 3 days after plating to inhibit fibroblast growth. Cultures were then placed in serum-free DMEM containing vitamin B12 and transferrin, 24 hours prior to the drug treatment.” left out
Cell viability was quantified based on metabolic activity using the MTS assay (Promega; Madison, Wis.). […] The quantity of formazan product is directly proportional to the number of living cells in culture (Zhang H M, et al., Circ Res. 2002; 90:1251-8).
The cultures were incubated in serum-free medium containing 20 μl/well of the MTS tetrazolium compound for 3 hours at 37° C. The absorbance of formazan products was photometrically measured at 490 nm with a microplate reader, ARVOsx (PerkinElmer; Shelton, Wash.). Cell viability was expressed as the percentage of the absorbance measured in the control group. […]

[3] = tested on: neonatal rat cardiac myocytes; experiment: Time-lapse confocal analysis of intracellular ROS production (DCF fluorescence); format: cell-based; conditions: 100 μM SFA pretreatment; H2O2 for 30 min (50 μM, 100 μM elsewhere in the source)
Protocol: as §2
(§3) Cells plated on 35 mm glass-bottom dishes were maintained at 37° C. in the presence of 5% CO2 using a heater platform installed on a microscope stage, and were placed in serum-free DMEM. After the desired temperature was reached, time-lapse confocal microscopy was started with 2 minute intervals, using a 20× objective lens. Images were taken with laser scanning confocal microscopy (Zeiss, LSM510). […]
(§4) Twenty-five cells were randomly selected in each scan, and the red or green fluorescence intensity was sequentially monitored.
ROS is one of the most important inducers of MPTP opening. To investigate whether the suppression of ROS production is associated with the protective effects of SFA, the present inventors assessed the change of DCF fluorescence by 50 μM H2O2 stimulation in each group using time-lapse confocal microscopy (FIG. 4). […]

[4] = tested on: cultured cortical and striatal neurons; conditions: in vitro; cited from earlier work
[5] = tested on: neonatal rat cardiac myocytes; experiment: Time-lapse confocal analysis of [Ca2+]m (rhod-2 fluorescence); format: cell-based; conditions: 100 μM SFA pretreatment; H2O2 for 1 hour (50 μM, 100 μM elsewhere in the source)
Protocol: as §2
as §3, with “lens.” for “lens. Images were taken with laser scanning confocal microscopy (Zeiss, LSM510).”
as §4
Calcium overload in mitochondrial matrix is one of the critical triggers of cell death and is also an important inducer of MPTP opening. To monitor the [Ca^2+]m level, the present inventors performed time-lapse confocal microscopy using the [Ca^2+]m sensitive dye, rhod-2, and observed the change of fluorescence due to 50 μM H2O2 stimulation in each group (FIG. 5). […]

[6] = tested on: neonatal rat cardiac myocytes; experiment: Time-lapse confocal analysis of ΔΨm loss (TMRE fluorescence); format: cell-based
Protocol: as §2
Cells plated on 35 mm glass-bottom dishes were maintained at 37° C. in the presence of 5% CO2 using a heater platform installed on a microscope stage, and were placed in serum-free DMEM. After the desired temperature was reached, time-lapse confocal microscopy was started with 2 minute intervals, using a 20× objective lens. Images were taken with laser scanning confocal microscopy (Zeiss, LSM510). TMRE and rhod-2 AM were excited at 543 nm using a helium/neon laser. DCF was excited at 488 nm using an argon laser.
as §4
To further confirm the protective effect of SFA in preventing the loss of ΔΨm, the present inventors examined the time-dependent changes of ΔΨm on a single-cell basis (FIG. 3). Time-lapse confocal analysis of cardiac myocytes loaded with TMRE was performed at 2-minute intervals. Time-lapse scanning began immediately after the application of 50 μM H2O2.
C=Control cells; H=Cells exposed to 100 μM H2O2 for 1 hour; SFA=Cells pretreated with 100 μM SFA followed by 100 μM H2O2 for 1 hour. Scale bars at 0 min frames: 20 μm.

[7] = electron spin resonance analysis; cited from earlier work
[8] = tested on: neonatal rat cardiac myocytes; experiment: TUNEL staining and DAPI staining of neonatal rat cardiac myocytes exposed to H2O2; format: cell-based
Protocol: as §1, with “Cultures were then placed in serum-free DMEM containing vitamin B12 and transferrin, 24 hours prior to the drug treatment.” left out
TUNEL staining was performed according to the manufacturer's protocol (Roche; Indianapolis, Ind.). Fluorescein labels incorporated in nucleotide polymers were detected with a fluorescence microscope (Axioskop 2 plus, Zeiss; Thornwood, N.Y.).
Cells were stained with the DNA binding dye DAPI (5 μM, Molecular Probes; Eugene, Oreg.). The nuclear morphology of cells were visualized and photographed with the fluorescence microscope. […]

[9] = Blood pressure measurement after femoral vein administration; format: in vivo, Sprague-Dawley male rats; conditions: 10 mg/kg into femoral vein; monitored until 10 minutes after administration; anesthetized rats
Protocol: The distal end of the common carotid artery of 8-week-old Sprague-Dawley male rats (about 250 g) was ligated under the effect of pentobarbital anesthetic. Then, to the proximate end thereof, a polyethylene tube filled with heparin-containing saline and connected to a pressure converter was inserted. Changes in blood pressure were recorded by a pen recorder.
A 24-gauge injection needle connected to a syringe via the tube was inserted into the femoral vein, and the liquid drug was injected over 1 to 2 minutes. The blood pressure was monitored from before the liquid drug administration until 10 minutes after the administration.
Serofendic acid was dissolved in Meylon (7% NaHCO3) at a concentration of 4 mg/mL. The blood pressure of each individual rat was measured after only the solvent was administered. Then, 10 mg/kg of serofendic acid was administered. The average of the blood pressure for 3 minutes before the administration of each of SFA and Meylon was set as 100%.

[10] = tested on: isolated cardiac myocytes; conditions: previously reported (Akao et al. 2001); cited from earlier work
[11] = 25 randomly selected cells, 100 μM SFA, H2O2

Compound: C[S+]([O-])CC1C2CCC3(CCC4C(C)(C(=O)O)CCCC4(C)C3C2)C1O (single isomer, unassigned; ent-15) [SFA, ent-15β-hydroxy-17-methylsulfinyl-16α-atisan-19-oic acid]
- concentration at which the ΔΨm-preserving effect reached its maximum level ([1]; 100 μM H2O2 for 1 hour): 100 µM
- protective effect in preventing the loss of ΔΨm, versus diazoxide ([1]; 100 μM SFA vs 100 μM diazoxide, 100 μM H2O2 for 1 hour): comparable to 100 μM diazoxide
- effect of co-application with diazoxide on ΔΨm preservation ([1]; 100 μM diazoxide and 100 μM SFA vs SFA alone, 100 μM H2O2): did not exhibit an additive effect
- protection against ΔΨm loss in the presence of mitoKATP channel blocker 5HD ([1]; 100 μM H2O2): completely blocked
- effect on control level of ΔΨm ([1]; SFA alone in the absence of H2O2): did not affect the control level of ΔΨm
- loss of ΔΨm (percentage of cells that maintain high (>200) TMRE fluorescence) ([1]; various concentrations of SFA followed by 100 μM H2O2 for 1 hour): prevented the loss of ΔΨm in a concentration-dependent manner
- cellular viability evaluated by MTS assay [2]: partly but significantly protected against H2O2-induced cytotoxicity
- DCF fluorescence (intracellular ROS) [3]: suppressed the increase in DCF fluorescence
- protection of neurons against glutamate, nitric oxide, and H2O2 cytotoxicity [4]: exhibited the ability to protect cultured cortical and striatal neurons
- rhod-2 fluorescence ([Ca2+]m overload) [5]: partly attenuated the [Ca^2+]m overload
- TMRE fluorescence over 60 minutes (time-lapse) ([6]; 100 μM SFA pretreatment, H2O2 (50 μM, 100 μM elsewhere in the source)): remarkably preserved
- number of cells undergoing the dissipation of ΔΨm [6, 11]: decreased the number of cells undergoing the dissipation of ΔΨm
- onset of ΔΨm loss [6, 11]: delayed the onset of ΔΨm loss
- hydroxyl radical-scavenging activity [7]: exhibits hydroxyl radical-scavenging activity
- nuclear morphology (DAPI staining) ([8]; 100 μM SFA, 100 μM H2O2 for 16 hours): significant protective effect in the preservation of nuclear morphology
- TUNEL-positive nuclei ([8]; pretreated with 100 μM SFA followed by 100 μM H2O2 for 16 hours, compared with H2O2 group): obviously fewer TUNEL-positive nuclei
- change in average blood pressure [9]: no significant change in average blood pressure was observed

Compound: CCCCCC(O)CCCC(=O)O (centres unmarked) [5HD, 5-hydroxydecanoate, reference compound]
- effect of 5HD alone on the loss of ΔΨm elicited by H2O2 ([1]; 500 μM 5HD, 100 μM H2O2): did not aggravate the loss of ΔΨn

Compound: CC1=NS(=O)(=O)c2cc(Cl)ccc2N1 [diazoxide, reference compound]
- protection against ΔΨm loss in the presence of mitoKATP channel blocker 5HD ([1]; 100 μM H2O2): completely blocked
- loss of ΔΨm induced by oxidative stress [10]: prevents the loss of ΔΨm induced by oxidative stress in a concentration-dependent manner
